Consider one molecule from patent US20080287469A1, “Phosphoinositide 3-Kinase Inhibitors for Inhibiting Leukocyte Accumulation” (priority 2005, published 2008).

In data set [1] the test system is neutrophils. In words: Neutrophil chemotaxis across bare filter insert (Transwell) to LTB4. It is filed as cell-based, mouse. The procedure:
Neutrophil chemotaxis experiments were conducted as described [Roth et al., J. Immunoi. Methods, 188:97-116 (1995)]. Briefly, purified human neutrophils were incubated with DMSO (0.3% v/v) or an inhibitor in accordance with the invention reconstituted in DMSO (0.3%) for 20 minutes at room temperature. Cells were added to bare filter inserts (Transwell™ 5 μm pore size; Corning Costar, Cambridge, Mass.), that were placed into wells containing chemoattractants or control medium of a Ultra low 24-well cluster plate, and incubated for 1 hour at 37° C. in a 5% CO2 humidified environment. The number of neutrophils that migrated into the bottom well was determined by FACScan (Becton Dickinson, San Jose, Calif.). Results were expressed as percent neutrophil migration relative to the control (medium without inhibitor).
A dose response curve was generated to determine the concentration of LTB4 necessary to support half-maximal migration across a bare filter insert. Maximal transmigration for neutrophils purified from mouse bone marrow occurred between 100 to 250 nM of LTB4. […] Tager et al., J Exp. Med., 192:439-46 (2000). Treatment of WT neutrophils with 2 μM inhibitor in accordance with the invention diminished migration in response to LTB4 (30 nM) by ˜30%, a value equivalent to that observed for PI3Kδ deficient cells.

The target of the next data set is PKCβII (Homo sapiens, UniProt P05771). Particulars: inhibitor 10 μM; reported by Sadhu et al.; cited from earlier work.
The target in the next data set is P70S6K (Homo sapiens, UniProt P23443). In words: Protein kinase/phosphatase panel: P70S6K. It is filed as biochemical. Particulars: inhibitor 10 μM; 100 μM ATP.
Data set [2] has as its target EGF receptor tyrosine kinase (Homo sapiens, UniProt P00533). In words: Protein kinase/phosphatase panel: EGF receptor tyrosine kinase. It is filed as biochemical. Particulars: inhibitor 10 μM; 100 μM ATP.
In another data set the target is PKC-θ (Homo sapiens, UniProt Q04759). In words: Protein kinase/phosphatase panel: PKC-θ. The class given is biochemical. Particulars: inhibitor 10 μM; 100 μM ATP.
The target of data set [3] is CD45 tyrosine phosphatase (Homo sapiens, UniProt P08575). In words: Protein kinase/phosphatase panel: CD45 tyrosine phosphatase. It is filed as biochemical. Particulars: inhibitor 10 μM.
Data set [4] can be described thus: Plasma concentration of the compound after oral administration. It is filed as in vivo, mice. Particulars: when LTB4 was applied. The procedure:
Animals received a single oral dose of either a compound in accordance with the invention (25 mg/kg for mice and 20 or 40 mg/kg for rats) or vehicle (PEG-400). Blood samples were subsequently drawn at indicated time points and plasma concentration of the compound determined after liquid-liquid extraction by LC/MS. The lower quantification limit was 50 ng/ml. Plasma samples from control animals (vehicle alone) were used as the blank control.

Another data set addresses DNA-PK (Homo sapiens, UniProt P78527). Particulars: inhibitor 10 μM; reported by Sadhu et al.; cited from earlier work.
Data set [5] relates to neutrophils. Particulars: absence of hemodynamic forces; Sadhu et al.; cited from earlier work.
Another data set concerns TNFα-stimulated HUVECs. In words: Neutrophil tethering to TNFα-stimulated HUVECs, parallel plate flow chamber. It is filed as cell-based, human. Particulars: for reduction of neutrophil tethering to HUVECs pre-incubated with inhibitor: 2 μM, vs vehicle. On the procedure: First, the effect of inhibiting PI3Kδ in endothelial cells was examined. Human umbilical vein endothelial cells (HUVECs) (3-4 passages; Cambrex Inc., East Rutherford, N.J.) grown on fibronectin-coated glass cover slips were pretreated with an inhibitor in accordance with the invention (2 μM) or vehicle control for 1 hour prior to being stimulated with TNFα (5 ng/ml, 4 h). Stimulation with TNFα induces expression of E-selectin by the endothelial cells. Peripheral blood neutrophils from healthy volunteers were isolated from whole blood by dextran sedimentation followed by density separation over Ficoll-Hypaque and hypotonic lysis. Approval was obtained from the Washington University Institutional Review Board for these studies. Informed consent was provided according to the Declaration of Helsinki. […] In additional experiments where leukocytes were pre-treated with an inhibitor of the invention as described above, the HUVECS were pre-incubated with mAb CL3 (50 μg/ml, 15 min) to block E-selectin binding. […] Endothelial cells therefore recruit leukocytes at least in part through selectins.

Another data set relates to CK1. Particulars: inhibitor 10 μM; reported by Sadhu et al.; cited from earlier work.
Data set [6] has as its target Insulin receptor tyrosine kinase (Homo sapiens, UniProt P06213). Kind of data set: Protein kinase/phosphatase panel: insulin receptor tyrosine kinase. The class given is biochemical. Particulars: inhibitor 10 μM; 100 μM ATP.
Data set [7] relates to Akt phosphorylation in HUVECs. In words: Akt phosphorylation in TNFα-stimulated HUVECs (Western blot). Particulars: 2 μM. It is filed as cell-based, human.
The target of another data set is Lck (Homo sapiens, UniProt P06239). Kind of data set: Protein kinase/phosphatase panel: Lck. It is filed as biochemical. Particulars: inhibitor 10 μM; 100 μM ATP.
The next data set has as its target CDK2/cyclinA (Homo sapiens, UniProt P24941). Kind of data set: Protein kinase/phosphatase panel: CDK2/cyclinA. The class given is biochemical. Particulars: inhibitor 10 μM; 100 μM ATP.
Data set [8] in a line: Number of circulating neutrophils in treated mice. The class given is in vivo. Particulars: inhibitor treated animals. The text has this:
The reduction in cell adhesion in these animals was not due to inhibitor-induced leukopenia as the number of circulating neutrophils was similar in both the control and experimental groups (2,857.3±803 and 2,730.7±1132.6 for control and inhibitor treated animals, respectively). The absolute number of circulating neutrophils in animals deficient in PI3Kδ was 2,997.7±776.1 (n=8).

In the next data set the target is PDK1 (Homo sapiens, UniProt O15530). In words: Protein kinase/phosphatase panel: PDK1. The class given is biochemical. Particulars: inhibitor 10 μM; 100 μM ATP.
For the next data set, the target named is p38 MAPK (Homo sapiens, UniProt Q16539). Particulars: inhibitor 10 μM; reported by Sadhu et al.; cited from earlier work.

The structures appear in SMILES notation.

Insulin receptor tyrosine kinase, sequence (P06213 28-1382): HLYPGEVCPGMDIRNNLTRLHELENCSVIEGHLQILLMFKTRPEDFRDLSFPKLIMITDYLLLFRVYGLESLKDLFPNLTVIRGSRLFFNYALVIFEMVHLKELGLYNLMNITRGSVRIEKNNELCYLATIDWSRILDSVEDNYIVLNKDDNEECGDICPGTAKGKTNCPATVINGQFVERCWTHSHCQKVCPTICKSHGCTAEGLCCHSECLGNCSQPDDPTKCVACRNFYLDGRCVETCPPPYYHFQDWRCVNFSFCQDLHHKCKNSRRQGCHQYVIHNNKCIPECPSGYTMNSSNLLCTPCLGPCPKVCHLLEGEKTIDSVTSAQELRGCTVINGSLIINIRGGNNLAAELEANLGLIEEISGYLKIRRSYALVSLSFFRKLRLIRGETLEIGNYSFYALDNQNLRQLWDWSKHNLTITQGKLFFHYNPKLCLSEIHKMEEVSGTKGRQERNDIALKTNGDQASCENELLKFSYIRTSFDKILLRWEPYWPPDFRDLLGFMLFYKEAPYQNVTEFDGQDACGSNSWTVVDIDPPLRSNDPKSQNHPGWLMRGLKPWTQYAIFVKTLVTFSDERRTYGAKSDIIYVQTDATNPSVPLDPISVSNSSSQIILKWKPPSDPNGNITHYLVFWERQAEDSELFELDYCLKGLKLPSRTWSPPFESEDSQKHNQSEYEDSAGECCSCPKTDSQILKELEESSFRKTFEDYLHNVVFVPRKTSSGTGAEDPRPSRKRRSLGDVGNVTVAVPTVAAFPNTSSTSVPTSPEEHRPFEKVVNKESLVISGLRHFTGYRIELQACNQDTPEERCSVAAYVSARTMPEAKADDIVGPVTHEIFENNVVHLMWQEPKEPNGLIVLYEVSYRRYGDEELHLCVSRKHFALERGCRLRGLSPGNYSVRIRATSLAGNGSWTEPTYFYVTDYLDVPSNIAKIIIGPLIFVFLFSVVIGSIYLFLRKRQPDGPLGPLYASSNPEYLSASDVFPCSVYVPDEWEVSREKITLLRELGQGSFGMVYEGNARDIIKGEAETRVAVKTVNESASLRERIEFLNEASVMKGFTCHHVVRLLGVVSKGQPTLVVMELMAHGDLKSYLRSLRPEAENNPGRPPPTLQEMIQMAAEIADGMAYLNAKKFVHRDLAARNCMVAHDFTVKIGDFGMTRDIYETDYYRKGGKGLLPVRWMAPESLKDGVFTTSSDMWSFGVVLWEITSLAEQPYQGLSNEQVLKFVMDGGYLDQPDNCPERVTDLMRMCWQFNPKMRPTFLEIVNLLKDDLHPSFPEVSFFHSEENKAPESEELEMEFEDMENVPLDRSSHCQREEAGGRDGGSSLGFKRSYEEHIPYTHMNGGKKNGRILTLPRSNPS
EGF receptor tyrosine kinase, sequence (P00533 25-1210): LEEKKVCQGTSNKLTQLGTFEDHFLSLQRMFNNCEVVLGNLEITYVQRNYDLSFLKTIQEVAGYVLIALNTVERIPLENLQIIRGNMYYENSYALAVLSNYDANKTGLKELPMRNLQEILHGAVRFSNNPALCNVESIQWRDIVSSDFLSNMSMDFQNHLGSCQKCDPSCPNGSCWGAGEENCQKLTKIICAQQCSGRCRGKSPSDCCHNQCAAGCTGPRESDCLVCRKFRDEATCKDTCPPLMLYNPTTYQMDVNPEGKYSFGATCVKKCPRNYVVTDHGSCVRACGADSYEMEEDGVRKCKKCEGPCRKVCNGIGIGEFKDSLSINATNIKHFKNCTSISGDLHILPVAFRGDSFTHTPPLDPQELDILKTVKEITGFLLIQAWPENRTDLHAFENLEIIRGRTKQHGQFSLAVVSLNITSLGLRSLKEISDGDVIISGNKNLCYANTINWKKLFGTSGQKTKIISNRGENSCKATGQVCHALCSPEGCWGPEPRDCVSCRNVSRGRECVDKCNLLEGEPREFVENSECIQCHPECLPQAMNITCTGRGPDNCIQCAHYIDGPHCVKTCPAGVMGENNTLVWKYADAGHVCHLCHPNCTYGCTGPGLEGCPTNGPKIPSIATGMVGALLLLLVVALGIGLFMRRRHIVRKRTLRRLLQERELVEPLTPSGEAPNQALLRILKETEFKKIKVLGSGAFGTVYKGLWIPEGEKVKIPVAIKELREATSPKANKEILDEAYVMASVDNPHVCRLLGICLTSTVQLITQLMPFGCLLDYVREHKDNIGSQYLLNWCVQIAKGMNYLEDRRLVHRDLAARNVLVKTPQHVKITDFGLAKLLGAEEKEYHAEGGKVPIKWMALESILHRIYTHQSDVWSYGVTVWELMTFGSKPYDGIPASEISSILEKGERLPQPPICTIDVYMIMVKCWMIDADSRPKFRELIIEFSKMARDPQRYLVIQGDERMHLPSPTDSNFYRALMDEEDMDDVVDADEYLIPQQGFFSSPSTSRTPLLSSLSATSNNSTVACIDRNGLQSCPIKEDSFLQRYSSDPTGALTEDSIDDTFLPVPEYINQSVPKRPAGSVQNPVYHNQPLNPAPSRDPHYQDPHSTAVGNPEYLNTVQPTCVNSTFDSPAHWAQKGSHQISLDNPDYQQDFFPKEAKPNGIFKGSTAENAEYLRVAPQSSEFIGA
Lck, sequence (P06239 whole entry, species assumed): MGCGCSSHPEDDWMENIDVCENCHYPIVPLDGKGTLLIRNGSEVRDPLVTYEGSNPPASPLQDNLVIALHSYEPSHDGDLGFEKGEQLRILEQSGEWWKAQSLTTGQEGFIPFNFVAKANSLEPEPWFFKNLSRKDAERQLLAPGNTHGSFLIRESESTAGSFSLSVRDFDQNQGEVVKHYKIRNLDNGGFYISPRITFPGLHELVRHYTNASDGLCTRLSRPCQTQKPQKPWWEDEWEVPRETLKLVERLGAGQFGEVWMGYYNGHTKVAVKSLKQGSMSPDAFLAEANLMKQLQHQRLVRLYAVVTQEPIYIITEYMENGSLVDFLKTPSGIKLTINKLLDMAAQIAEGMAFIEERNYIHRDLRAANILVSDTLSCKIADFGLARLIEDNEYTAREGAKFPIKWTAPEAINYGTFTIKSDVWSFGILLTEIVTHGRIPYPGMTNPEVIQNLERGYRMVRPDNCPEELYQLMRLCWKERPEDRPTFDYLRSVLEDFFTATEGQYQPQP
P70S6K, sequence (P23443 whole entry): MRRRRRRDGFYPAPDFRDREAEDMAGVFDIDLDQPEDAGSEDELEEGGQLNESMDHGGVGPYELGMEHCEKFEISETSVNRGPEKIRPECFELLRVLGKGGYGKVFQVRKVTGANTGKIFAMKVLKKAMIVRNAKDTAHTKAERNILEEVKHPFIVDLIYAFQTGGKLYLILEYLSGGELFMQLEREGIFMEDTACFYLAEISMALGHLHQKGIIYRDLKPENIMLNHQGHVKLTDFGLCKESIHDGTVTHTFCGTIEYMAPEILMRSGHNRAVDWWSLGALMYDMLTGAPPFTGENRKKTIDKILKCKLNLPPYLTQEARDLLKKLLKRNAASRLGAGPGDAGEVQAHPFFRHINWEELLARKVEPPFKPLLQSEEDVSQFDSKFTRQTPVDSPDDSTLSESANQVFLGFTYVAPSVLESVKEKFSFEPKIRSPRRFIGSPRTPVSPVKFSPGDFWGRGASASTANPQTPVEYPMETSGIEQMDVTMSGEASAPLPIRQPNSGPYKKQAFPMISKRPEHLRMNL
PDK1, sequence (O15530 whole entry): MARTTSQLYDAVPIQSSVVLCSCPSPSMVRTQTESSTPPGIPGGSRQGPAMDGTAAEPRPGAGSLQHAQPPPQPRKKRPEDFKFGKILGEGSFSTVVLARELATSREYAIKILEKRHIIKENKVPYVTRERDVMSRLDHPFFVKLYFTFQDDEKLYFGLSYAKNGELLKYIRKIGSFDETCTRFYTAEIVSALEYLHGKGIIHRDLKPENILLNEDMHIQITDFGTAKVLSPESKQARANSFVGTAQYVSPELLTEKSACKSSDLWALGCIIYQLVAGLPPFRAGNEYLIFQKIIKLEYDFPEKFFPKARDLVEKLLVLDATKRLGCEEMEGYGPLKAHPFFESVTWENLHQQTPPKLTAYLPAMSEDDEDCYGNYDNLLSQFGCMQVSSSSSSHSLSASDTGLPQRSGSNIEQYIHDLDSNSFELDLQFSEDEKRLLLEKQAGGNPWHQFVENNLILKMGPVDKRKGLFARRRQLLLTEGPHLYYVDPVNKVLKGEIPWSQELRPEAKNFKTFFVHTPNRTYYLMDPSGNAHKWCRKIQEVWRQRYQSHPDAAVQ
p38 MAPK, sequence (Q16539 whole entry): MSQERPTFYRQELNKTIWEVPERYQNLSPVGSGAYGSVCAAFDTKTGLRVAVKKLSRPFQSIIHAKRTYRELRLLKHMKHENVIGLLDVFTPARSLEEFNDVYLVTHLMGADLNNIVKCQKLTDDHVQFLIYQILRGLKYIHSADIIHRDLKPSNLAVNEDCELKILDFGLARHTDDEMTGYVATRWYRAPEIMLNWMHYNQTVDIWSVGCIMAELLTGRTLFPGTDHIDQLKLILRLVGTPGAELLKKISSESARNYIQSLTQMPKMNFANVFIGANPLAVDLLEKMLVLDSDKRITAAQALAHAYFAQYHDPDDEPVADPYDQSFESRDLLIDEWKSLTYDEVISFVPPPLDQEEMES

Regarding `Cc1ccccc1-n1c(Cn2cnc3c(N)ncnc32)nc2cccc(C)c2c1=O`, the “diminished migration in response to LTB4” value in the data set with neutrophils [1] (2 μM, LTB4 30 nM, WT neutrophils) is recorded as about 30%. In addition, the “chemotaxis of cells lacking PI3Kδ” value in the data set with neutrophils [1] (identical concentration (2 μM), PI3Kδ deficient cells) is reported as “no further effects on chemotaxis”. The “Activity (% of control) ± SD” value on PKCβII was “No inhibition*”; on P70S6K it was 98.5 ± 0.7 % of control; in [2], 102 ± 5.5 % of control; on PKC-θ, 97 ± 5.5 % of control; in data set [3], 104 ± 2.2 % of control; on DNA-PK it was “No inhibition*”. In addition, the “Activity (% of control) ± SD” value in the data set with CK1 is reported as “No inhibition*”; in data set [6], 98 ± 6.2 % of control; at Lck it was 116.5 ± 9.2 % of control; on CDK2/cyclinA it was 92.5 ± 2.12 % of control; at PDK1 it was 91.5 ± 2.1 % of control; on p38 MAPK, “No inhibition*”. In [4], the “inhibitor concentration (mean plasma)” value came out at 12.8 ± 3.7 µM. Further, in the data set with neutrophils [5], the “fMLP-induced chemotaxis on an ICAM-1 substrate in vitro” value was “diminished fMLP-induced chemotaxis”. The “reduction of neutrophil tethering to HUVECs pre-incubated with inhibitor” value was 28% with TNFα-stimulated HUVECs (wall shear rate 100 s^−1) and 40% in the data set on TNFα-stimulated HUVECs (wall shear rate 300 s^−1). Also, the “neutrophil tethering after treatment of neutrophils (not HUVECs) with inhibitor” value with TNFα-stimulated HUVECs (identical concentration (2 μM), HUVEC pre-treated with only TNFα) is recorded as “did not reduce neutrophil tethering”. Besides, the “phosphorylation of Akt (TNFα-mediated signaling)” value in data set [7] is recorded as “reduction in phosphorylation of Akt”. Further, in [8], the “number of circulating neutrophils” value was 2,730.7±1132.6.
